Assay results published in patent US20040092581A1, “Ratjadone derivatives for inhibiting cell growth” (priority 2001, published 2004).
≈ marks a conversion by molar mass, not a printed value. Where two headings read alike, the source gives them in different places. Marks after values point to notes of the source that are not given here.

Tests used:
HeLa cells (KB3.1) = details: cited from earlier work
[1] = system: HM02 (gastroadenocarcinoma); experiment: cells; format: cell-based; details: for CC50: read-out: LC50; for TGI: complete inhibition of cell growth
Procedure: (§1) The tables below show the influence of the substances 1, 36 and 37 according to the invention on the growth of tumor cells, specifically the growth of the cell lines HM02 (gastroadenocarcinoma), HepG2 (liver carcinoma) and MCF 7 (mammary carcinoma).
(§2) The studies were carried out in accordance with the NCI guidelines (Grever et al., Seminars in Oncology 19 (1992), 622-638). The cells were cultured in 96-well microtitre plates in RPMI 1640 medium with 10% FCS (foetal calf serum). 24 h after dissemination of the cells, the substances 1 and 36 according to the invention dissolved in methanol were added and the cells were incubated for a further 48 h. The cell count was then determined.
(§3) GI50: denotes the concentration that effects a semi-maximum inhibition of the cell growth
(§4) TGI: denotes the concentration that effects complete inhibition of the cell growth

[2] = system: MCF 7 (mammary carcinoma); experiment: cells; format: cell-based; details: for CC50 / GI50: Homo sapiens; for CC50: read-out: LC50; for TGI: complete inhibition of cell growth
Procedure: as §1, §2, §3, §4

HepG2 (liver carcinoma) = experiment: cells; format: cell-based; details: for TGI: complete inhibition of cell growth; for CC50 / GI50 / inhibition at 0.5 µg/mL: Homo sapiens; for CC50: read-out: LC50; for inhibition at 0.5 µg/mL: HEP-G2, at 500 ng/ml, read-out: growth inhibition
Procedure: as §1, §2, §3, §4

[3] = system: glioblastoma cells growing on a conventional carrier; experiment: Shape and carrier adhesion of glioblastoma cells; format: cell-based; details: 50 nM
Source text: In addition, the shape of glioblastoma cells growing on a conventional carrier as a function of the concentration of the substance 1 according to the invention was investigated (no figure). In the absence of substance 1 the cells have their typical dendritic shape and adhere to (sic) the carrier surface.

Glioblastoma cells = experiment: Influence on the cell cycle, continuous flow cytometry, glioblastoma cells; format: cell-based; details: 20 nM, 48 h incubation
Procedure: (§5) Glioblastoma cells and HepG2 cells (liver carcinoma cells) were in each case incubated for 48 h without the substance 1 according to the invention and in nutrient medium containing various concentrations of the substance 1 according to the invention. The cells were harvested and measured by continuous flow cytometry.
(§6) Bookmark not defined. to […]. for glioblastoma cells and […]. to […]. for HepG2 cells, in each case in plot form. In each case the DNA content is indicated on the X axis and the cell count is indicated on the Y axis. Bookmark not defined. to […]. were obtained in each case with 0 nM, 10 nM and 20 nM, respectively, of the preferred substance 1 according to the invention in the culture medium; the results shown in Figures […]. to […]. were obtained with 0 nM, 2 nM and 5 nM, respectively, of the preferred substance 1 according to the invention in the culture medium.
(§7) It can be seen that for both cell lines tested the absolute number and the number of cells in the S and in the G2 phase decreases with increasing concentration of substance 1. […] The preferred substance 1 according to the invention thus arrests the cell cycle in the G1 phase at the dosage suitable for the particular cell type.

[4] = system: HepG2 cells (liver carcinoma cells); experiment: Influence on the cell cycle, continuous flow cytometry, HepG2 cells; format: cell-based; details: 5 nM, 48 h incubation
Procedure: as §5, §6, §7

[5] = MCF7, MCF 7, 48 h incubation, semi-maximum inhibition of cell growth, read-out: GI50

| Structure (SMILES) | IC50, inhibition of growth of HeLa cells (KB3.1) (HeLa cells (KB3.1)) | CC50 ([1]; HM02, 48 h) | TGI ([1]; HM02, 48 h incubation) | GI50 ([1]; HM02, 48 h incubation, semi-maximum inhibition of cell growth, read-out: GI50) | CC50 ([2]; MCF7, 48 h) | GI50 [2, 5] | TGI ([2]; MCF 7, 48 h incubation) | TGI (HepG2 (liver carcinoma); HEP-G2, 48 h incubation) | CC50 (HepG2 (liver carcinoma); HepG2, 48 h) | GI50 (HepG2 (liver carcinoma); HepG2, HEP-G2, 48 h incubation, semi-maximum inhibition of cell growth, read-out: GI50) | inhibition at 0.5 µg/mL (HepG2 (liver carcinoma); HepG2) | cell shape and adhesion to the carrier surface [3] | cell cycle phase distribution (G1 arrest) (Glioblastoma cells) | cell cycle phase distribution (G1 arrest) [4] | GI50 ([1]; HM02, 48 h) | GI50 ([2]; MCF7, 48 h) | GI50 (HepG2 (liver carcinoma); HepG2, 48 h) | inhibition at 0.1 µg/mL ([1]; HM02, read-out: growth inhibition) |
| --- | --- | --- | --- | --- | --- | --- | --- | --- | --- | --- | --- | --- | --- | --- | --- | --- | --- | --- |
| C/C=C/[C@@H]1O[C@H]([C@H](O)/C=C/C=C(\C)C[C@@H](C)/C=C(C)\C=C\[C@H]2CC=CC(=O)O2)C[C@@H](O)[C@@H]1C [Ratjadon, ratjadon] | 50 pg/mL | – | – | – | – | – | – | – | – | – | – | – | – | – | – | – | – | – |
| C/C=C/[C@H]1O[C@@H]([C@@H](O)/C=C/C=C(\C)C[C@@H](C)/C=C(C)\C=C\[C@H]2CC=CC(=O)O2)C[C@H](O)[C@H]1C [Substance 1] | – | 0.25 µg/mL (≈ 0.547 µM) | 24 ng/mL (≈ 0.0526 µM) | < 5 ng/mL | < 0.5 µg/mL | 0.016 µg/mL (≈ 0.035 µM) | >500^b ng/ml | 500^b ng/ml | > 0.5 µg/mL | 0.013 µg/mL (≈ 0.0285 µM) | 80% | the cells have largely lost their dendritic shape and detach easily from the carrier surface | virtually all cells tested are in the G1 phase | virtually all cells tested are in the G1 phase | – | – | – | – |
| CC(=C/[C@H](C)C/C(C)=C/C=C/[C@H](O)[C@H]1CCCCO1)/C=C/[C@H]1CC=CC(=O)O1 [Substance 36] | – | > 0.5 µg/mL | 140 ng/mL (≈ 0.362 µM) | – | > 0.5 µg/mL | – | >500^c ng/ml | >500^c ng/ml | > 0.5 µg/mL | – | 60% | – | – | – | 5 ng/mL (≈ 0.0129 µM) | 0.1 µg/mL (≈ 0.259 µM) | 0.058 µg/mL (≈ 0.15 µM) | – |
| C/C=C/[C@H]1O[C@@H]([C@@H](O)/C=C/C=C(\C)C[C@@H](C)/C=C(C)\C=C\[C@@H]2CC=CC(=O)O2)C[C@H](O)[C@H]1C [Substance 37] | – | > 0.1 µg/mL | >100^a ng/ml | – | > 0.1 µg/mL | 0.025 µg/mL (≈ 0.0547 µM) | >100 ng/mL | >100 ng/mL | > 0.1 µg/mL | – | – | – | – | – | 17 ng/mL (≈ 0.0372 µM) | – | 0.085 µg/mL (≈ 0.186 µM) | 90% |
